Experimental data from US20080287662A1, “Balanites Aegyptiaca Saponins and Uses Thereof” (priority 2005, published 2008).

Assays:
[1] = test system: Aedes aegypti mosquito larvae; test: Effect of purified main mesocarp saponin on Aedes aegypti larvae, pupa and adults; type: in vivo
Protocol: Eggs of laboratory-grown Aedes aegypti were hatched in tap water in a growth chamber with a 16-hour photoperiod, at a temperature of 25±3° C. Twenty to twenty five larvae at the late 3rd and early 4th instars were placed into 150-ml disposable plastic cups containing 100 ml of tap water together with water-soluble saponin solutions of various concentrations. During the experiments, treated and control (0 mg/L saponin) cups were examined after 2, 4, 9 and 11 days and number of alive larvae or adults were counted. The data are presented in percentage together with an analysis of variance using the Tukey-Kramer HSD test (SAS's JMP software) at the 0.01 level of significance.

Pythium aphanidermatum = test: Mycelial colony growth inhibition in vitro; type: cell-based
Protocol: Cultures of Pythium aphanindermatum were isolated from plant species showing Pythium symptoms. The isolate was placed in potato dextrose agar (PDA, Difco, Detroit, Mich., USA) supplemented with 100 ppm of streptomycin and incubated in the dark at 27° C. for 2 days. The colony of Pythium was identified visually and microscopically and sub-cultured on PDA without antibiotics as described by Tsror et al (2001).
For fungal growth inhibition measurements five concentrations of Balanites mesocarp saponin (ME) preparation (0.1, 0.5, 1.0, 2.0 and 4.0% w/v) and two concentrations of Metalaxyl-10 (a systemic benzenoid fungicide, 1 and 5 ppm as positive control) were added in separate Erlenmeyer flasks containing sterilized (121° C., 2 atm, 20 min) PDA, and mixed properly. Samples of PDA containing Balanites mesocarp saponin preparation and Metalaxyl-10 (15 ml) were poured into sterilized petri dishes separately and allowed to solidify. 5 mm in diameter agar plug of the fungal isolate was placed in the center of each plate. The plates were incubated at 27° C. (10 plates per treatment). The colony diameter of the mycelial growth was measured after 24 and 48 h and the inhibitory activity of each treatment was expressed as the growth inhibition percentage as compared to the negative control (0% ME preparation) using the formula: Growth inhibition percentage=[100-(Treatment growth/Control growth*100)].

Escherichia coli = test: Bacterial growth in LB (OD660); type: cell-based
Protocol: Standard Luria Broth solution (LB) was prepared using […] yeast extract, 10 mg NaCl and 10 mg Typtone per ml of DDW. A small portion of the Escherichia coil inoculum (LMC1492 strain, obtained from the Life Sciences Department of the Ben-Gurion University) was added to the LB solution in a sterilized Erlenmeyer and inoculated in a rotary water bath incubator at 250 rpm and 37° C. The tested extracts were first prepared in 5% in LB solution and used as stock solution for further dilution. Lower concentrations were obtained by mixing this stock solution in the required ratios with plain LB solution. The extract containing solution of the required concentrations were prepared in 10/140 mm glass test tubes in volumes of 1.8 ml each and incubated in a rotary water bath incubator (Gyvotory-676, New Brunswick Scientific Co. Inc, NY) at 250 rpm and 37° C.

[2] = test system: mung bean seeds and seedlings; test: Mung bean germination, growth and development under saline water irrigation; type: in vivo; design: key to Germination (4 days): ++++ more advanced seedling; typical germination using tap water +++ (1 cm height with two leave starting to be expended); ++ less advanced seedling; + not germinated seedling; key to Foliage (14 days): aaaa more elongated seedlings; Typical mung bean foliage development 14 days after germination using tap water aaa (~10 cm seedling with fully expanded two leave and abscised cotyledons); aa less elongated seedlings; a dwarf seedling; key to Root: bbbb more elongated and branched roots; Typical mung bean root system 14 days after germination using tap water bbb (~6 cm well branched roots); bb less elongated roots; b short and necrotic root system; conditions: for Root: 14 days after germination
Protocol: Addition of Balanites mesocarp extract (ME) saponins in moderate concentration of […] to the irrigation saline water stimulated the germination and development of mung bean seeds in comparison to control. It also stimulated the germination of the seeds in comparison to control and to saline treatments. The effect on the foliage and the roots of the treated mung bean seedlings corresponded to the effect on the germination. These effects are directly related to the effect of Balanites mesocarp saponin treatment on water uptake by the mung bean seeds and germinated seedlings.

[3] = Vitamin C delivery through isolated rat skin; type: in vitro ADME; conditions: 25° C., 60% relative humidity
Protocol: The effect of Balanites mesocarp saponin preparation on delivery of vitamin C through the skin was tested using isolated rat skin system. 100 μl of saponin nanovesicles containing encapsulated vitamin C (2 mg) were prepared from saponin extracted from Balanites mesocarp by the procedure A described in Example 5(i) above. 15 μl of the preparation were loaded on an isolated rat skin in three replicates. The treatments were applied in a controlled environment (25° C. and 60% relative humidity) and incubated for 30 or 60 min. The solution delivered through the isolated skin was tested using an HPLC system for detecting the level of vitamin C corresponding to a standard peak of vitamin C.

[4] = Penetration rate of 14C-labeled 2,4-D across isolated leaf cuticle membranes with saponin adjuvant; design: species or system Citrus grandis; conditions: 1% (w/v) adjuvant, 30° C. and 30% RH

CC(CCC1(O)O[C@H]2C[C@H]3[C@@H]4CC=C5C[C@@H](O[C@@H]6O[C@H](CO)[C@@H](O[C@@H]7O[C@H](CO)[C@@H](O)[C@H](O)[C@H]7O)[C@H](O)[C@H]6O[C@@H]6O[C@@H](C)[C@H](O)[C@@H](O)[C@H]6O)CC[C@]5(C)[C@H]4CC[C@]3(C)[C@H]2[C@@H]1C)CO[C@@H]1O[C@H](CO)[C@@H](O)[C@H](O)[C@H]1O (stereo partly drawn) [26-(O-β-D-glucopyranosyl)-3β,22,26-trihydroxyfurost-5-ene 3-O-β-D-glucopyranosyl-(1→4)-[α-L-rhamnopyranosyl-(1→2)]-β-D-glucopyranoside]
% adults ([1]; 10 ppm, day 0): 0%
% dead larvae ([1]; 10 ppm, day 0): 0%
% pupa ([1]; 10 ppm, day 0): 0%
% adults ([1]; 10 ppm, day 2): 0%
% dead larvae ([1]; 10 ppm, day 2): 0 d %
% pupa ([1]; 10 ppm, day 2): 0%
% adults ([1]; 10 ppm, day 4): 0%
% dead larvae ([1]; 10 ppm, day 4): 0 d %
% pupa ([1]; 10 ppm, day 4): 41 ab %
% adults ([1]; 10 ppm, day 9): 41 bc %
% dead larvae ([1]; 10 ppm, day 9): 0 d %
% pupa ([1]; 10 ppm, day 9): 0 b %
% adults ([1]; 10 ppm, day 11): 87 a %
% dead larvae ([1]; 10 ppm, day 11): 1.25 d %
% pupa ([1]; 10 ppm, day 11): 0%
% adults ([1]; 100 ppm, day 0): 0%
% dead larvae ([1]; 100 ppm, day 0): 0%
% pupa ([1]; 100 ppm, day 0): 0%
% adults ([1]; 100 ppm, day 2): 0%
% dead larvae ([1]; 100 ppm, day 2): 0 d %
% pupa ([1]; 100 ppm, day 2): 0%
% adults ([1]; 100 ppm, day 4): 0%
% dead larvae ([1]; 100 ppm, day 4): 0 d %
% pupa ([1]; 100 ppm, day 4): 45 a %
% adults ([1]; 100 ppm, day 9): 70 a %
% dead larvae ([1]; 100 ppm, day 9): 6.25 d %
% pupa ([1]; 100 ppm, day 9): 0 b %
% adults ([1]; 100 ppm, day 11): 85 a %
% dead larvae ([1]; 100 ppm, day 11): 6.25 cd %
% pupa ([1]; 100 ppm, day 11): 0%
% adults ([1]; 300 ppm, day 0): 0%
% dead larvae ([1]; 300 ppm, day 0): 0%
% pupa ([1]; 300 ppm, day 0): 0%
% adults ([1]; 300 ppm, day 2): 0%
% dead larvae ([1]; 300 ppm, day 2): 50 c %
% pupa ([1]; 300 ppm, day 2): 0%
% adults ([1]; 300 ppm, day 4): 0%
% dead larvae ([1]; 300 ppm, day 4): 50 c %
% pupa ([1]; 300 ppm, day 4): 15 bc %
% adults ([1]; 300 ppm, day 9): 15 d %
% dead larvae ([1]; 300 ppm, day 9): 50 c %
% pupa ([1]; 300 ppm, day 9): 33.25 a %
% adults ([1]; 300 ppm, day 11): 50 b %
% dead larvae ([1]; 300 ppm, day 11): 48.75 bc %
% pupa ([1]; 300 ppm, day 11): 0%
% adults ([1]; 500 ppm, day 0): 0%
% dead larvae ([1]; 500 ppm, day 0): 0%
% pupa ([1]; 500 ppm, day 0): 0%
% adults ([1]; 500 ppm, day 2): 0%
% dead larvae ([1]; 500 ppm, day 2): 77.5 b %
% pupa ([1]; 500 ppm, day 2): 0%
% adults ([1]; 500 ppm, day 4): 0%
% dead larvae ([1]; 500 ppm, day 4): 78.75 b %
% pupa ([1]; 500 ppm, day 4): 9.5 c %
% adults ([1]; 500 ppm, day 9): 20 cd %
% dead larvae ([1]; 500 ppm, day 9): 78.25 b %
% pupa ([1]; 500 ppm, day 9): 1.75 b %
% adults ([1]; 500 ppm, day 11): 22.5 c %
% dead larvae ([1]; 500 ppm, day 11): 78.25 ab %
% pupa ([1]; 500 ppm, day 11): 0%
% adults ([1]; 800 ppm, day 0): 0%
% dead larvae ([1]; 800 ppm, day 0): 0%
% pupa ([1]; 800 ppm, day 0): 0%
% adults ([1]; 800 ppm, day 2): 0%
% dead larvae ([1]; 800 ppm, day 2): 95 a %
% pupa ([1]; 800 ppm, day 2): 0%
% adults ([1]; 800 ppm, day 4): 0%
% dead larvae ([1]; 800 ppm, day 4): 95 a %
% pupa ([1]; 800 ppm, day 4): 1.75 c %
% adults ([1]; 800 ppm, day 9): 0 d %
% dead larvae ([1]; 800 ppm, day 9): 93.75 a %
% pupa ([1]; 800 ppm, day 9): 0 b %
% adults ([1]; 800 ppm, day 11): 5 c %
% dead larvae ([1]; 800 ppm, day 11): 94.25 a %
% pupa ([1]; 800 ppm, day 11): 0%
% adults ([1]; 1000 ppm, day 0): 0%
% dead larvae ([1]; 1000 ppm, day 0): 0%
% pupa ([1]; 1000 ppm, day 0): 0%
% adults ([1]; 1000 ppm, day 2): 0%
% dead larvae ([1]; 1000 ppm, day 2): 90 a %
% pupa ([1]; 1000 ppm, day 2): 0%
% adults ([1]; 1000 ppm, day 4): 0%
% dead larvae ([1]; 1000 ppm, day 4): 94 a %
% pupa ([1]; 1000 ppm, day 4): 3.75 c %
% adults ([1]; 1000 ppm, day 9): 3.75 d %
% dead larvae ([1]; 1000 ppm, day 9): 93.75 a %
% pupa ([1]; 1000 ppm, day 9): 0 b %
% adults ([1]; 1000 ppm, day 11): 3.75 c %
% dead larvae ([1]; 1000 ppm, day 11): 96.25 a %
% pupa ([1]; 1000 ppm, day 11): 0%
% Growth inhibition (Pythium aphanidermatum; 0.1% w/v, 24 h): 4.29 ± 1.50 d %
% Growth inhibition (Pythium aphanidermatum; 0.1% w/v, 48 h): 1.00 ± 0.01 e %
% Growth inhibition (Pythium aphanidermatum; 0.5% w/v, 24 h): 13.96 ± 3.21 d %
% Growth inhibition (Pythium aphanidermatum; 0.5% w/v, 48 h): 5.35 ± 1.32 e %
% Growth inhibition (Pythium aphanidermatum; 1.0% w/v, 24 h): 66.39 ± 3.52 c %
% Growth inhibition (Pythium aphanidermatum; 1.0% w/v, 48 h): 26.01 ± 2.95 c %
% Growth inhibition (Pythium aphanidermatum; 2.0% w/v, 24 h): 81.96 ± 1.30 b %
% Growth inhibition (Pythium aphanidermatum; 2.0% w/v, 48 h): 70.87 ± 2.57 b %
% Growth inhibition (Pythium aphanidermatum; 4.0% w/v, 24 h): 82.47 ± 1.30 b %
% Growth inhibition (Pythium aphanidermatum; 4.0% w/v, 48 h): 80.01 ± 0.42 b %
growth inhibition (Escherichia coli; 1.0% (w/v)): 33.3%
concentration up to which bacterial growth was increased (Escherichia coli; series 0.01-1.0% w/v): 0.5 % (w/v)

[Cl-].[Na+] [NaCl]
Foliage (14 days) ([2]; 75 mM): aa
Germination (4 days) ([2]; 75 mM): ++
Root ([2]; 75 mM): bbb
Foliage (14 days) ([2]; 150 mM): a
Germination (4 days) ([2]; 150 mM): +
Root ([2]; 150 mM): bb

O=C1O[C@H]([C@@H](O)CO)C(O)=C1O [Vitamin C, ascorbic acid]
Vitamin C level in skin ([3]; 30 minutes incubation): 259 ± 109 ng/cm^2 skin surface area
Vitamin C level in skin ([3]; 60 minutes incubation): 326 ± 131 ng/cm^2 skin surface area

Triton X-100
Factor increase (times) of penetration rate vs DDW [4]: 18.6 times
Penetration rate of 2,4-D (^14C) [4]: 11.00 × 10^−5 a h^−1
Factor increase (times) of penetration rate vs DDW ([4]; listed as Triton): 19.1 times
Penetration rate of 2,4-D (^14C) ([4]; listed as Triton): 0.00011 h⁻¹
